According to patent US20250073248A1, “BIORESORBABLE CATIONIC STEROIDAL ANTIMICROBIAL COMPOUNDS WITH GLYCERIDE LINKAGES” (BRIGHAM YOUNG UNIVERSITY, priority 2023, published 2025):
≈ marks a conversion by molar mass, not a printed value.

Experiments:
Candida albicans (CA) = test: MIC and MFC, broth microdilution, CA (Table 1); assay type: cell-based; conditions: Candida albicans
Source text: (§1) To investigate the antimicrobial impact of structural variance in the novel bioresorbable CSA compounds disclosed herein,Pseudomonas aeruginosa 01 (PA01), methicillin-resistant Staphylococcus aureus (MRSA), and Candida albicans (CA) were selected, representing Gram-negative bacterial, Gram-positive bacterial, and fungal pathogens of high or critical priority on the world health organization's priority lists for bacteria and fungi. Earlier applications of CSA compounds have focused on preventing medical device infections, and all three strains are commonly found in colonized implants, making efficacy against these pathogens an important indicator of future applicability.
(§2) All compounds were screened against these pathogens to determine their minimum inhibitory concentration (MIC), minimum bactericidal concentration (MBC), and minimum fungicidal concentration (MFC) using a broth microdilution method. […] Of these three, only CSA-4110 was similarly active against PA01and CA, inhibiting growth at 8 μg/mL.

[1] = system: Pseudomonas aeruginosa (Pa); test: Example 1 MIC/MBC (FIG. 1, FIG. 2), Pa; assay type: cell-based
Protocol: (§3) The antimicrobial activities of CSA-4108, CSA-4110, CSA-4112, and CSA-4114 were determined relative to methicillin-resistant Staphylococcus aureus (MRSA), Pseudomonas aeruginosa (Pa), and Candida albicans 90028. The minimum inhibitory concentration (MIC) for CSA-4108, CSA-4110, CSA-4112, and CSA-4114 relative to the foregoing microbes is graphically reported in FIG. 1. The minimum bactericidal concentration (MBC) and minimum fungicidal concentration […] for CSA-4108, CSA-4110, CSA-4112, and CSA-4114 relative to the foregoing microbes are graphically reported in FIG. 2.

physchem = assay type: physicochemical; conditions: for half-life: buffer
Protocol: (§4) The stability, more particularly the rate of hydrolysis in water, of CSA-4110 was tested at various pH values or when exposed to lipase.
(§5) To measure the stability of CSA-4110 under various conditions (pH and presence of lipase), monitored degradation over time by HPLC. To enable UV/visible detection, CSA-4110 required derivatization with a chromophore. A precolumn derivatization method was adapted using Fmoc-Cl. This method also required CSA-131 as an internal standard to eliminate errors due to volumetric variations.
(§6) With a reliable quantitative analysis method in hand, the optimal storage conditions were determined for CSA-4110 in solution and how quickly CSA-4110 degrades when exposed to mammalian lipases and varied pH. Reference is again made to FIGS. 3A-3D.

[2] = Critical micelle concentration, orange OT dye solubilization; assay type: physicochemical; conditions: aqueous solution with orange OT dye, water; FIG. 4; read-out: critical micelle concentration (CMC), solubilization of orange OT
Protocol: Previous studies have shown membrane disruption and permeabilization to be the mechanism of action of other CSA compounds. The critical micelle concentration (CMC) of CSA-4110 was measured to determine if aggregation was necessary for antimicrobial activity (see FIG. 4). This assay involves using a hydrophobic dye (orange OT) that is insoluble in water to measure what concentration of CSA-4110 is required to solubilize orange OT. Entry of orange OT into solution is due to micelle formation by CSA-4110 and can be quantified with a spectrophotometer.

[3] = system: Pseudomonas aeruginosa 01 (PA01); test: MIC and MBC, broth microdilution, PA01 (Table 1); assay type: cell-based; conditions: Pseudomonas aeruginosa
Source text: as §1, §2

[4] = system: methicillin-resistant Staphylococcus aureus (MRSA); test: MIC and MBC, broth microdilution, MRSA (Table 1); assay type: cell-based; conditions: Staphylococcus aureus
Source text: as §1, §2

Candida albicans 90028 = test: Example 1 MIC/MFC (FIG. 1, FIG. 2), C. albicans; assay type: cell-based
Protocol: as §3

lipase = test: Stability (hydrolysis) in the presence of lipase, HPLC; assay type: in vitro ADME
Protocol: as §4, §5, §6

P. mirabilis ATCC 29906 = test: MIC/MBC of CSA-4110, Gram negative bacteria (Table 3); assay type: cell-based; conditions: Proteus mirabilis, ATCC29906
Protocol: as §2
(§7) CSA-4110 was evaluated further against a broader range of bacterial and fungal strains. Acinetobacter baumannii and several isolates of Staphylococcus aureus, Klebsiella pneumoniae, and Candida auris were selected, further broadening the coverage of high and critical priority pathogens. Streptococcus uberis, Staphylococcus pseudintermedius, Proteus mirabilis, and Escherichia coli were also screened to obtain a more complete efficacy profile. […] For comparison, previous work established the MICs of CSA-131 against strains of Staphylococcus aureus, Pseudomonas aeruginosa, and Candida albicans at 0.5-2 μg/mL
PM is a Gram-negative organism which is occasionally found in urinary tract infections in individuals with functional or anatomical anomalies. It is often noted for its ability to modulate its susceptibility to cationic biocides primarily through modifications to its efflux system and the structure of lipopolysaccharide, a negatively charged endotoxin located in the outer membrane. This can provide insight into the mechanism-of-action for CSA-4110. […]

C. albicans ATCC 90028 = test: MIC/MFC of CSA-4110, fungi (Table 4); assay type: cell-based; conditions: Candida albicans, ATCC90028
Protocol: as §2, §7

MRSA ATCC BAA-42 = test: Membrane depolarization, DiSC2(5) fluorescence; assay type: cell-based, Staphylococcus aureus; conditions: 8 μg/mL, added at 140 seconds, FIG. 5
Protocol: Reference is made to FIGS. 4 and 5. […] CSA-131 or CSA-4110 was added at 140 second to achieve 8 μg/mL after addition.
Antimicrobial peptides (AMPs) and CSA compounds are known to permeabilize bacterial membranes. For bacterial survival, the cytoplasmic membrane must be polarized. Depolarization of this membrane prevents ATP synthesis and leads to cell death. The dye 3,3′-diethylthiadicarbocyanine iodide (DiSC2(5)) can be used to measure cell membrane polarization. Fluorescence of this dye is decreased when it inserts into polarized membranes, and membrane depolarization results in substantial increases in fluorescence (see FIG. 5).
MRSA was used to explore the impact of CSA-4110 on membrane depolarization and compared results to those with ceragenin CSA-131. […] Fluorescence was monitored over time after addition of CSA-4110 or CSA-131. which incorporated into cellular membranes.

Question: What does the source list for `CCCCCCCCCC(=O)OCC(O)COC(=O)CC[C@@H](C)[C@H]1CC[C@H]2[C@@H]3[C@H](OC(=O)CCN)C[C@@H]4C[C@H](OC(=O)CCN)CC[C@]4(C)[C@H]3C[C@H](OC(=O)CCN)[C@]12C` (stereo partly shown) [CSA-4110]?
Answer: MBC (Candida albicans (CA); MFC, value in parentheses): 16 µg/mL (≈ 18.8 µM); MIC (Candida albicans (CA); first value of cell): 8 µg/mL (≈ 9.41 µM); MBC (FIG. 2), ranking in words ([1]; PA): lowest MBC and MFC; MIC (FIG. 1), ranking in words ([1]; Pa): lowest MIC; half-life (physchem; pH 7.2): 108 h; half-life (physchem; pH 10): 24 h; stability / hydrolysis in aqueous solution (physchem; pH 7.2): less stable; stability / hydrolysis in aqueous solution (physchem; pH 10): unstable; critical micelle concentration [2]: ~1000 µg/mL; MBC ([3]; MBC, value in parentheses): 32 µg/mL (≈ 37.6 µM); MIC ([3]; first value of cell): 8 µg/mL (≈ 9.41 µM); MBC ([4]; MBC, value in parentheses, kills at least 99.9%): 8 µg/mL (≈ 9.41 µM); MIC ([4]; first value of cell): ≤ 8 µg/mL; MFC (FIG. 2), ranking in words (Candida albicans 90028): lowest MBC and MFC; MIC (FIG. 1), ranking in words (Candida albicans 90028): same MIC; hydrolysis in aqueous solution containing lipase (lipase; FIG. 3D): hydrolyzed most rapidly; half-life (lipase; mammalian (lipase; species not named), lipase in aqueous solution, dissolved with a lipase at room temperature at pH=6.9): 1 h; MBC (P. mirabilis ATCC 29906): 64 µg/mL; MIC (P. mirabilis ATCC 29906): 16 µg/mL; MBC (C. albicans ATCC 90028): 16 µg/mL (≈ 18.8 µM); MIC (C. albicans ATCC 90028): 4 µg/mL (≈ 4.71 µM); fluorescence of DiSC2(5) after addition (membrane depolarization) (MRSA ATCC BAA-42): rapid increase of fluorescence
